# Results as given in PubChem BioAssay (NCI).
# Values joined by “and” are separate entries in the source; they are usually repeats but may differ in a detail not shown here. Equal entries are not always repeated.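 1) Cells in 96-well plates. 2) Compound, 48 h, 5 concentrations. 3) Linear interpolation between surrounding doses. 4) Unreached endpoint = highest concentration. GI50 marks 50% less growth. The concentration for full growth arrest is given as TGI.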
# Experiments:
# Assay in all cases: NCI-60 cell line screen, 48 h
# SN12C renal = tested on: SN12C renal
# HS 578T breast = tested on: HS 578T breast
# MALME-3M melanoma = tested on: MALME-3M melanoma
# RXF 393 renal = tested on: RXF 393 renal
# PC-3 prostate = tested on: PC-3 prostate
# COLO 205 colon = tested on: COLO 205 colon
# UO-31 renal = tested on: UO-31 renal
# HL-60(TB) leukemia = tested on: HL-60(TB) leukemia
# SF-268 CNS = tested on: SF-268 CNS
# M14 melanoma = tested on: M14 melanoma
SMILES,GI50 (SN12C renal) [µM],TGI (SN12C renal),GI50 (HS 578T breast) [µM],TGI (HS 578T breast) [µM],GI50 (MALME-3M melanoma) [µM],TGI (MALME-3M melanoma) [µM],GI50 (RXF 393 renal) [µM],TGI (RXF 393 renal) [µM],GI50 (PC-3 prostate) [µM],TGI (PC-3 prostate) [µM],GI50 (COLO 205 colon) [µM],TGI (COLO 205 colon),GI50 (UO-31 renal) [µM],TGI (UO-31 renal) [µM],GI50 (HL-60(TB) leukemia) [µM],TGI (HL-60(TB) leukemia) [µM],GI50 (SF-268 CNS) [µM],TGI (SF-268 CNS),TGI (M14 melanoma),GI50 (M14 melanoma) [µM]
Cc1ccc(N=C2CSc3nnc(-c4csc5c4CCCC5)n3N2)cc1,0.406,> 50 µM,0.168,40.2,26.5,> 50,0.162,> 50,0.27,> 50,0.191,> 50 µM,0.43,> 50,0.12,0.298,0.561,> 50 µM,–,–
CN(C)c1ccc(/C=C2\CNC/C(=C\c3ccc(N(C)C)cc3)C2=O)cc1,–,75.4 µM,–,–,–,> 100,–,44,–,–,–,> 100 µM,–,> 100,–,–,–,–,> 100 µM,–
NC(=O)c1csc(C2C=CC(CO)O2)n1 (stereo not drawn),–,> 100 µM,–,–,–,> 100,–,–,–,–,–,> 100 µM,–,> 100,–,> 100,–,> 100 µM,> 100 µM,–
C/C(=N\NC(=O)CC(=O)Nc1ccc(Cl)cc1)c1cc2ccccc2oc1=O,–,> 100 µM,–,–,–,> 100,–,> 100,–,–,–,> 100 µM,–,> 100,–,> 100,–,–,> 100 µM,–
O=C([O-])c1ccc2c(c1)-c1nc-2nc2[n-]c(nc3nc(nc4[n-]c(n1)c1ccc(C(=O)[O-])cc41)-c1cc(C(=O)[O-])ccc1-3)c1ccc(C(=O)[O-])cc21.[Fe+2],> 50,> 50 µM,–,–,> 50,> 50,> 50,> 50,–,–,> 22.2,> 31.2 µM,> 50,> 50,> 22.9,> 30.5,> 50,> 50 µM,> 50 µM,> 50
Cc1c(O)c(=O)ccn1C1OC(CO)C(O)C1O (stereo not drawn),–,> 100 µM,–,–,–,> 100,–,> 100,–,–,–,> 100 µM,–,> 100,–,56.3,–,> 100 µM,> 100 µM,–
COC(=O)C1=C(C(=O)OC)C23C=CC=CC24C(C(=O)OC)=C(C(=O)OC)C4C1C3 (stereo not drawn),–,> 100 µM,–,–,–,> 100,–,> 100,–,–,–,> 100 µM,–,> 100,–,> 100,–,> 100 µM,> 100 µM,–
O=C1CC2CCCCC2=C1O (stereo not drawn),–,> 100 µM,–,–,–,> 100,–,> 100,–,–,–,> 100 µM,–,> 100,–,> 100,–,> 100 µM,–,–
COc1ccc(C2NCCc3c2[nH]c2ccccc32)cc1CN1CCN(c2ccc(F)cc2)CC1 (stereo not drawn),3.47,15.5 µM,1.6,3.75,1.88,3.49,1.37,2.94,2.21,5.35,1.93,3.65 µM,1.57,4.12,2.14,4.77,2.57,7.82 µM,–,–
N#C/C(=C/C=C(\Cl)c1ccc(Cl)cc1)C(N)=O,4.38,18.7 µM,3.07,9.91,1.48,3.55,3.75,> 57.6,2.18,5.55,5.24,> 55.8 µM,–,> 46.8,–,–,3.46,13.6 µM,9.84 µM,1.94
CCCCCCCCCCCCCC/C(C(=O)OC)=C(/O)C(=O)OCC,–,> 100 µM,–,–,–,> 100,–,> 100,–,–,–,> 100 µM,–,53.5,–,> 100,–,64.3 µM,37.4 µM,–
CO[C@H]1[C@H](O)[C@H](O[C@H]2CC[C@@]3(C)[C@H](CC[C@@H]4[C@@H]3CC[C@]3(C)[C@@H](C5=CC(=O)OC5)CC[C@]43O)C2)O[C@@H](C)[C@@H]1O,–,0.00112 µM and < 0.0107 µM,–,< 0.0001,–,0.000721,–,–,0.00525,0.524,–,0.00509 µM and 0.0316 µM,–,0.00201,0.00175,0.00363,–,0.00183 µM and 0.0166 µM,0.00302 µM and 0.0169 µM,–
COc1ncc(-c2nc3c(n2C(C)C)[C@H](c2ccc(Cl)cc2)N(c2cc(Cl)cn(C)c2=O)C3=O)c(OC)n1,49.8,> 100 µM,32.6,> 100,14.6,59.3,–,–,20.2,> 100,36.9,> 100 µM,5.83,88.8,31.2,99.7,71.5,> 100 µM,> 100 µM,36.8
COc1c2ccccc2c(O)c2c(=O)c(C(=O)O)cn(C)c12,–,–,> 100,> 100,–,–,80.3,> 100,> 100,> 100,> 100,> 100 µM,> 100,> 100,–,–,> 100,> 100 µM,> 100 µM,> 100
CCCCn1c2c(c3ccccc3c1=O)C(=O)c1ccccc1-2,–,> 100 µM,–,> 100,–,> 100,–,–,–,> 100,–,> 100 µM,–,> 100,–,> 100,–,> 100 µM,> 100 µM,–
CC1=C(C(=O)Nc2ccccc2C)C(c2ccc([N+](=O)[O-])cc2)C(C(=O)Nc2ccccc2C)=C(C)N1,–,> 100 µM,–,–,–,> 100,–,88.2,–,–,–,> 100 µM,–,> 100,–,47,–,> 100 µM,> 100 µM,–
N#Cc1c[nH]n2ccnc12,–,> 100 µM,–,> 100,–,–,–,–,–,> 100,–,> 100 µM,–,> 100,–,> 100,–,> 100 µM,> 100 µM,–
C=C(CN1CCN(c2cccc(C(F)(F)F)c2)CC1)c1ccc(C(=O)Nc2ccccc2N)cc1,2.19,14.5 µM,0.491,> 36.3,–,–,1.62,–,0.615,> 50,3.45,> 23 µM,2.4,12.1,0.118,0.856,1.43,10.8 µM,9.89 µM,1.05
CCOP(=O)(CC(=O)C1=C(O)C(CCCNC(=O)OC(C)(C)C)N(Cc2ccc(OC)c(OC)c2)C1=O)OCC (stereo not drawn),–,> 100 µM,–,–,–,> 100,–,> 100,–,–,–,> 100 µM,–,> 100,–,> 100,–,> 100 µM,> 100 µM,–
